SMILES strings stand for the structures.

The values below come from ChEMBL document CHEMBL2202954, “The effect of PLC-γ2 inhibitors on the growth of human tumour cells” (2012).

Common to all, as to type: functional
One assay concerns OVCAR-5. In words: Cytotoxicity against human OVCAR5 cells assessed as cellular growth at 10 uM by SRB assay.
The test system of the next assay is Malme-3M. In words: Cytotoxicity against human MALME-3M cells assessed as cellular growth at 10 uM by SRB assay. (In general: In SRB staining, fixed cells bind dye roughly in proportion to their protein.)
A further assay concerns A498. In words: Cytotoxicity against human A498 cells assessed as cellular growth at 10 uM by SRB assay.
A further assay has as its system SK-OV-3. As to the kind of experiment: Cytotoxicity against human SKOV3 cells assessed as cellular growth at 10 uM by SRB assay.
The test system of a further assay is COLO 205. As to the kind of experiment: Cytotoxicity against human COLO205 cells assessed as cellular growth at 10 uM by SRB assay.
The subject of another assay is OVCAR-4. As to the kind of experiment: Cytotoxicity against human OVCAR4 cells assessed as cellular growth at 10 uM by SRB assay.
The next assay deals with EKVX. In words: Cytotoxicity against human EKVX cells assessed as cellular growth at 10 uM by SRB assay.
The test system of another assay is SNB-75. As to the kind of experiment: Cytotoxicity against human SNB75 cells assessed as cellular growth at 10 uM by SRB assay.
The subject of another assay is SR. As to the kind of experiment: Cytotoxicity against human SR cells assessed as cellular growth at 10 uM by SRB assay.
The subject of a further assay is NCI-H226. As to the kind of experiment: Cytotoxicity against human NCI-H226 cells assessed as cellular growth at 10 uM by SRB assay.
The next assay has as its system IGROV-1. In words: Cytotoxicity against human IGROV1 cells assessed as cellular growth at 10 uM by SRB assay.
The test system of another assay is HOP-92. In words: Cytotoxicity against human HOP92 cells assessed as cellular growth at 10 uM by SRB assay.
A further assay relates to T47D. As to the kind of experiment: Cytotoxicity against human T47D cells assessed as cellular growth at 10 uM by SRB assay.
In another assay the test system is NCI-H322M. In words: Cytotoxicity against human NCI-H322M cells assessed as cellular growth at 10 uM by SRB assay.
The next assay concerns HCT-116. As to the kind of experiment: Cytotoxicity against human HCT116 cells assessed as cellular growth at 10 uM by SRB assay.
For the next assay, the system named is HCT-15. As to the kind of experiment: Cytotoxicity against human HCT15 cells assessed as cellular growth at 10 uM by SRB assay.
The test system of another assay is SK-MEL-5. In words: Cytotoxicity against human SK-MEL-5 cells assessed as cellular growth at 10 uM by SRB assay.
Another assay has as its system SK-MEL-28. In words: Cytotoxicity against human SK-MEL-28 cells assessed as cellular growth at 10 uM by SRB assay.
Another assay deals with UO-31. In words: Cytotoxicity against human UO31 cells assessed as cellular growth at 10 uM by SRB assay.
The subject of another assay is LOX IMVI. In words: Cytotoxicity against human LOXIMVI cells assessed as cellular growth at 10 uM by SRB assay.

Take `O=C(Nc1nc2ccccc2s1)c1ccc(F)cc1`: the Activity in the assay on OVCAR-5 is 100.92%; in the assay on Malme-3M, 96.2%; in the assay with A498 it was 89.82%; in the assay on SK-OV-3, 108.36%; in the assay on COLO 205, 117.74%; in the assay on OVCAR-4, 85.42%. The Activity in the assay with EKVX is reported as 77.77%; in the assay on SNB-75, 96.73%; in the assay on SR, 98.39%; with NCI-H226, 92.69%; with IGROV-1 it was 88.87%; in the assay on HOP-92, 78.65%. The Activity in the assay with T47D is reported as 55.31%; with NCI-H322M it was 92.49%; with HCT-116 it was 92.81%; in the assay with HCT-15, 85.53%; with SK-MEL-5, 91.3%; in the assay with SK-MEL-28, 113.63%. Also, the figures for the Activity in the assay with UO-31 and in the assay with LOX IMVI were 89.11% and 100.61%, respectively.

For `COc1ccc(NC(=O)c2sc3nc4c(cc3c2N)C(=O)CCC4)cc1`, the Activity amounted to 99.71% with OVCAR-5; 102.12% in the assay with Malme-3M; 39.38% in the assay on A498; 115.02% with SK-OV-3; 122.21% in the assay with COLO 205; 107.69% with OVCAR-4. For the same compound, the Activity with EKVX turned out to be 102.57%; in the assay with SNB-75, 103.13%; with SR, 113.2%; with NCI-H226, 95.31%; in the assay with IGROV-1, 114.88%; in the assay with HOP-92, 78.47%. For the same compound, the Activity came out at 110.7% in the assay on T47D; 57.79% with NCI-H322M; 97.11% in the assay with HCT-116; 100.8% in the assay with HCT-15; 98.62% with SK-MEL-5; 106.67% with SK-MEL-28. Also, the results for the Activity in the assay with UO-31 and in the assay on LOX IMVI were 106.6% and 100.6%, respectively.
